The results in this text go back to patent US7265147B2, “3,6-disubstituted azabicyclo [3.1.0]hexane derivatives useful as muscarinic receptor antagonists” (Ranbaxy Laboratories Limited, priority 2002, dated 2007).

Assay [1] deals with T1, M3 muscarinic receptor (Rattus norvegicus, UniProt P08483). To be noted: for Ki: read-out: Receptor Binding Assay Ki (nM) M3.
The target in assay [2] is T2, M2 muscarinic receptor (Rattus norvegicus, UniProt P10980).
T2 construct: Submandibular glands and heart were isolated and placed in ice cold homogenising buffer; from tissue; host or cells: rat heart membrane homogenate
T2 sequence (P10980 1-466): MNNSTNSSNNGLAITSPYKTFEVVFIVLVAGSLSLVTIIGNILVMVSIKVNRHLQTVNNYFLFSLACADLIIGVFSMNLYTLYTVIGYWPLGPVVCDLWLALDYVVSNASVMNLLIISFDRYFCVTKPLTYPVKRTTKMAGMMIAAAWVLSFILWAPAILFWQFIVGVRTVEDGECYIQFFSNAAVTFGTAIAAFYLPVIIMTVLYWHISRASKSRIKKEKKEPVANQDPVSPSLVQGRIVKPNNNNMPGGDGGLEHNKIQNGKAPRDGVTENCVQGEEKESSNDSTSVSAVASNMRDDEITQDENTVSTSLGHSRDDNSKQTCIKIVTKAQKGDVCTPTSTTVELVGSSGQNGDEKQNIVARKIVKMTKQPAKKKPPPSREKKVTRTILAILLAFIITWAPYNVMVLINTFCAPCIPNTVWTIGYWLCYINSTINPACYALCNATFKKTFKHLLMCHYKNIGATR
Description: Radioligand binding assay, [3H]-N-methylscopolamine, rat heart membranes.

Assay [3] deals with T1, M3 muscarinic receptor. Description: biochemical.
Where [4] appears, read: read-out: Receptor Binding Assay Ki (nM) M2.

Like-named read-outs stand apart in the source and are kept apart here.

T1 sequence (P08483 whole entry): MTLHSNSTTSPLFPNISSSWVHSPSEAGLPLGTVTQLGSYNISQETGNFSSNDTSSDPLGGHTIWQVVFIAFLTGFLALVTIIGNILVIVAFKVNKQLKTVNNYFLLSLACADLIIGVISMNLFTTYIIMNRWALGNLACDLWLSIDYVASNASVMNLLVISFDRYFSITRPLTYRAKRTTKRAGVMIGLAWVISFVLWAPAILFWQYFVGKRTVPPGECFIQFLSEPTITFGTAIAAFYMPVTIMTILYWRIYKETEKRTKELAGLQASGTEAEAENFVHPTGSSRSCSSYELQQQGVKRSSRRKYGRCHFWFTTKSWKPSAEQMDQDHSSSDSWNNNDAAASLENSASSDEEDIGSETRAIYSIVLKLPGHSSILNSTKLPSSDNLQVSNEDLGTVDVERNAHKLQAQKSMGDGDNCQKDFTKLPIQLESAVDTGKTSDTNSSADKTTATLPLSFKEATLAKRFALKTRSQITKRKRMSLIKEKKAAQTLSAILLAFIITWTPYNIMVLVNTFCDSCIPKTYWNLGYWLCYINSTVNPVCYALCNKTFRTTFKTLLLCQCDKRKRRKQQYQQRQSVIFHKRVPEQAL

Turning to “4-[(1S,5R)-2-methyl-3-azabicyclo[3.1.0]hex-3-yl]-but-2-ynyl-2-cyclohexyl-2-hydroxyphenylacetate [Compound No. 18]”, in assay [1], the “Selectivity (M2/M3)” value worked out at 7.708 and the Ki came to 24 nM. In addition, the Ki in assay [2] (setting [4]) was 185 nM.
In the same order, the values of “4-[(1S,5R)-2-methyl-3-azabicyclo[3.1.0]hex-3-yl]-but-2-ynyl-2-cyclopentyl-2-hydroxyphenylacetate [Compound No. 17]” are 3.641, 39 nM and 142 nM.
`O=C(NCC#CCN1C[C@H]2C[C@H]2C1)C(O)(c1ccccc1)C1CCCCC1` (stereo partly drawn) [Compound No. 9, N-{4-[(1R, 5S)-3-azabicyclo[3.1.0]-hex-3-yl]but-2-ynyl}-2-hydroxy-2-cyclohexyl-2-phenylacetamide] came in with a Ki in assay [2] of 3580 nM.
As for `O=C(NCC#CCN1C[C@H]2C[C@H]2C1)C(O)(c1ccccc1)C1CCCC1` (stereo partly drawn) [Compound No. 10, N-{4-[(1R, 5S)-3-azabicyclo[3.1.0]-hex-3-yl]but-2-ynyl}-2-hydroxy-2-cyclopentyl-2-phenylacetamide], the “Selectivity (M2/M3)” value in assay [1] came to 1.28. The Ki in assay [2] was determined as 425 nM; in assay [3] it was 0.33 µM.
Compound `O=C(NCC#CCN1C[C@H]2C[C@H]2C1)C(O)(c1ccccc1)c1ccccc1` [Compound No. 11, N-{4-[(1R, 5S)-3-azabicyclo[3.1.0]-hex-3-yl]but-2-ynyl}-2-hydroxy-2,2-diphenylacetamide] returned a Ki in assay [2] of 639 nM.
In assay [2], `O=C(NCC#CCN1C[C@H]2C[C@H]2C1)C(O)(c1ccc(F)cc1)c1ccc(F)cc1` [Compound No. 12, N-{4-[(1R,5S)-3-azabicyclo[3.1.0]-hex-3-yl]-but-2-ynyl}2-hydroxy-bis(4-florophenyl)acetamide] registered a Ki of 736 nM.

The term Ki denotes a dissociation constant, usually derived from enzyme kinetics or from competition with a known ligand.
